pIC50: −log10 of the molar value. Values belong to the molecule of their own block, whether it stands above or below them.
Columns and labels:
[1] = molecular target: T1, lyso-PAF: acetyl-CoA acetyltransferase (Rattus norvegicus, UniProt P0C1Q3); experiment: Lyso-PAF: Acetyl-CoA Acetyltransferase [Synthesis of Platelet-Activating Factor (PAF)] in a lysate of rat pleural neutrophils; format: biochemical, rat (male Harlan Sprague-Dawley); details: lysate of activated rat pleural neutrophils, pH 6.9, 37° C., 10 min; read-out: Enzymes IC50 PAF
T1 construct: measured in a lysate of rat pleural neutrophils; endogenous in cells
T1 sequence (P0C1Q3 1-544): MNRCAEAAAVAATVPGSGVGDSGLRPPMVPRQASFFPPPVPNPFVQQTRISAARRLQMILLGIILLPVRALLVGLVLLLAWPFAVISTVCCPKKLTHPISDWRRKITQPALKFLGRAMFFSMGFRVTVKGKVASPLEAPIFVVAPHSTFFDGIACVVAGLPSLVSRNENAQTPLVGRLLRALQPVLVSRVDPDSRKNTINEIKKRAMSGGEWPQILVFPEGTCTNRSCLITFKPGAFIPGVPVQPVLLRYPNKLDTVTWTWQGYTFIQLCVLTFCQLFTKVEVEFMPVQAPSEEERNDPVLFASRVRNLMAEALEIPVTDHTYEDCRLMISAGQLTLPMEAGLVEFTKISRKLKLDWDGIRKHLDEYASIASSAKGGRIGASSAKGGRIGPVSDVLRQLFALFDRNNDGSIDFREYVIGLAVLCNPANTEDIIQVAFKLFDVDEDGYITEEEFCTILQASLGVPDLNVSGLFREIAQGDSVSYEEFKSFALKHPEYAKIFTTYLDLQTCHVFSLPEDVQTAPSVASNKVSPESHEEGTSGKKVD
Method: (§1) Compounds of the invention were assayed for inhibiting activity in arachidonate metabolism and PAF synthesis as follows.
B) Lyso-PAF: Acetyl-CoA Acetyltransferase [Synthesis of Platelet-ActivatingFactor (PAF)]
Synthesis of PAF (platelet-activating factor) was measured in a lysate of rat pleural neutrophils, as described by White and Faison, Prostaglandins,1988; 35: p939-44. Pleural exudate cells, harvested from male Harlan Sprague-Dawley rats (150±20 g) 3 hr after injection of 0.5 mg carrageenan, were centrifuged at 200 g for 10 min at 4° C., washed, and resuspended at approximately 17 million cells/mi in a buffer consisting of 50 mM potassium phosphate, 144 mM NaCl, 6 mM KCl, 5 mM glucose, 1 mM MgCl2, 1.3 mM CaCl2, pH 7.4. Resuspended cells were incubated with calcium ionophore A23187 (1 μM) for 5 min at 37° C. to activate the acetyltransferase and then centrifuged at 755 g for 2 min at 4° C. Pellets were resuspended in cold distilled water and sonicated in a 50 Hz ultrasonic bath. Portions (250 μl) of the resulting lysate were mixed with buffer, test compound, and substrates to give 36 mM Tris-Cl, pH 6.9, 12 μM lyso-PAF, and 2.3 μM [^14 C]acetyl-CoA (0.06 μCi) in a total volume of 500 μl. Blank assays contained nonactivated neutrophils and no added lyso-PAF. The compound being tested was added prior to substrates. After incubation at 37° C. for 10 min. 0.68 ml of 2N HCl and 2.53 ml of 1:1 chloroform/methanol were added to each tube to extract labeled PAF. Each tightly-covered tube was briefly sonicated in a Branson 50 Hz bath, vortexed for 20 sec, and centrifuged at 160 g for 5 min to separate solvent phases. A 0.90 ml aliquot of the lower (organic)phase was pipetted into a glass scintillation vial, dried under nitrogen using an N-EVAP apparatus (Organomation Associates), and counted using scintillation techniques.

[2] = molecular target: T2, arachidonate 5-lipoxygenase (Rattus norvegicus, UniProt P12527); experiment: Arachidonate metabolism: 5-lipoxygenase inhibition in rat pleural exudate cells; format: cell-based, rat (Harlan Sprague-Dawley male); details: ionophore A23187, 10 μM arachidonate, 37° C., read-out: Enzymes IC50 5-LO
T2 construct: endogenous in cells; host or cells: pleural exudate cells of male Harlan Sprague-Dawley rats, 3 hr after intrapleural carrageenan
T2 sequence (P12527 1-673): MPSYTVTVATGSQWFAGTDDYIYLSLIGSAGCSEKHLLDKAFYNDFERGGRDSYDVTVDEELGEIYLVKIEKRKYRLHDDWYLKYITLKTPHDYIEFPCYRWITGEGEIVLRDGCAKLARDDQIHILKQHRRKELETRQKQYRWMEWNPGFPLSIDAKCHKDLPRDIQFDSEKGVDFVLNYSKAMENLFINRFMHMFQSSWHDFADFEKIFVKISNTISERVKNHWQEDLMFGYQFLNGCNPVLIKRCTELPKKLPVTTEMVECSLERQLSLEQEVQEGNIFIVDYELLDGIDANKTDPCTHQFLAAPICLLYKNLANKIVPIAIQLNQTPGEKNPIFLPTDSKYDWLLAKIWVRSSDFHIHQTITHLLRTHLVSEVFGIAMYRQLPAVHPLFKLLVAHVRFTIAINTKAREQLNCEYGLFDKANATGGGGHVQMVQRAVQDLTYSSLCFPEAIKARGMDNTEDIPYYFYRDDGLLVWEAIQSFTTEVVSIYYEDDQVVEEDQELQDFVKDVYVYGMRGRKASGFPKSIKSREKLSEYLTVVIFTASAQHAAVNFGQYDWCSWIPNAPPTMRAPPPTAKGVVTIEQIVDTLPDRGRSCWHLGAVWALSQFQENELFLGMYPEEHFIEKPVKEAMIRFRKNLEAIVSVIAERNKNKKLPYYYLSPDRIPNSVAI
Method: as §1
(§2) A) Arachidonate Metabolism
(§3) Arachidonate cyclooxygenase, 5-lipoxygenase, and thromboxane synthetase were assayed as described in White et al, Prostaglandins, Leukotrienes and Medicine, 1985; 20: p 1-9. Pleural exudate cells were harvested from Harlan Sprague-Dawley male rats (150±20 g) 3 hr after intrapleural injection of 0.5 mg carrageenan. Cell counts were obtained from pooled exudates, which were then centrifuged at 200 g (10 min, 4° C.) and resuspended at 15 million cells/ml in 0.13M NaCl, 15 mM Tris-Cl, 5 mM glucose, pH 7.4. Portions of this cell suspension (3 million cells per assay) were preincubated with and without compound being tested for 5 min at 37° C. in 50 mM Tris-Cl, 1 mM CaCl2, pH 7.4. Ionophore A23187 (3 μM) and [^14 C]arachidonate (to give 10 μM; 55 Ci/mol) were then added in a total assay volume of 400 μl, and incubation was continued for 2 min at 37° C. Blank assays were performed using sonicated cells with 0.1 mM 3-amino-1-m-trifluoromethylphenyl pyrazol-2-ine, an inhibitor of cyclooxygenase and lipoxygenase pathways. After incubation, reaction mixtures were acidified with 20 μl of 2N HCl and extracted with 4 ml diethyl ether. Ether extracts were dried under nitrogen, resuspended in ethyl acetate, and chromatographed on Whatman LK5D silica gel G plates, using ethyl acetate/isooctane/acetic acid/water (9/5/2/10; vols; top layer after 5 min shaking). Thin layer plates were exposed to Kodak SB-5 X-ray film to produce autoradiogran. [^14 C]DPM in products were obtained by scraping appropriate regions of TLC plates and counting in a scintillation spectrometer. Effects on the 5-lipoxygenase pathway were estimated by counting 5-HETE and 5,12-diHETE (LTB4). Cyclooxygenase and thromboxane synthetase inhibition were estimated by counting thromboxane B2 and prostaglandin E2 or F2 α. Selective thromboxane inhibitors will decrease thromboxane B2 and increase PGE2 and PGF2 α. Cyclooxygenase inhibitors will inhibit the formation of all three products.

[3] = tested on: arachidonate cyclooxygenase; experiment: Arachidonate metabolism: cyclooxygenase inhibition in rat pleural exudate cells; format: cell-based, rat (Harlan Sprague-Dawley male); details: ionophore A23187, 10 μM arachidonate, 37° C., read-out: Enzymes IC50 CO
Method: as §1, §2, §3

[4] = tested on: antigen-induced airway eosinophilia; experiment: Inhibition of antigen-induced airway eosinophilia in the guinea pig; format: in vivo, guinea pig (male Hartley); details: 24 h after antigen challenge
Method: 2) Compounds of the invention were assayed for inhibition of Antigen-Induced airway eosinophilia as follows:
Male Hartley guinea pigs [Crl:(HA)Br, Charles River] weighing 200-300 g were sensitized to ovalbumin (OA) by intraperitioneal (i.p.) injections (in 1 ml 0.9% saline) of 20 mg followed by 1 mg 2 or 3 days later. After four to twelve weeks, the animals were treated with the antihistamine, pyrilamine (1 mg/kg i.p), 1 hour prior to exposure (17.8 l chamber) and for 10 min to an aerosol of OA (0.5% w/v solution in 0.9% sterile saline) generated from a jet nebulizer (Devilbiss Model 40; flow rate=8.51/min). […] Twenty-four hours after antigen challenge, each animal was anesthetized with sodium pentobarbital (55-75 mg/kg i.p.), the trachea cannulated and the lungs lavaged with 4×10 ml aliquots of Hanks' Balanced Salt Solution warmed to 37° C. The aliquots were pooled in 40 ml polycarbonate centrifuge tubes, centrifuged (200 g for 10 min at 4° C.) and the cell pellet resuspended in HEPES buffered solution (2 ml). Fifty μl of the suspension were added to 10 ml of Isoton Diluent (Fisher Scientific) containing three drops of lysing agent and the cells counted with a Coulter Counter (Model ZB1). Four μl of the cell suspension were spread on a 3×1 inch glass microscope slide, allowed to dry and the cells stained with DIFF-QUIK™ (Fisher Scientific). Two slides were prepared for each animal. Differential cell counts were made (100× magnification) from a minimum of four fields on 100 cells per slide (total cells counted per animal=200), using standard morphological criteria to classic cells into eosinophils, neutrophils, lymphocytes and macrophages. The activity of the test compound was calculated by comparing the mean proportions of eosinophils in the lavage fluid of compound-treated animals with controls (vehicle-treated animals) and expressing as percent inhibition.

[5] = tested on: C. parvum/LPS septic shock in mice; experiment: In vivo Septic Shock model C. parvum/LPS Shock; parameters: species or system mouse (male CD-1); details: for % Survival After 48 hr / Alive/Total at 3 hr / Alive/Total at 48 hr: schedule -2,0 hr
Method: 3) In vivo Septic Shock model C. parvum/LPS Shock
Male CD-1 mice, 25-30 g (Charles River: Raleigh, N.C.), are injected intravenously (i.v.) with 100 μg killed C. parvum (Coparvax; Burroughs Wellcome, RTP, NC). Nine or ten days later the mice are injected i.v. with 20 μg E. coli 026:B6 lipopolysaccharide (LPS; Difco Labs, Detroit, Mich.) in the presence of the analgesic butorphanol (150 μg per mouse). (E)-4-(1,3-bis(cyclohexylmethyl)-1, 2, 3, 6-tetrahydro-2, 6dioxo-9H-purin-8-yl)cinnamic acid was dissolved in ENCAPSIN (hydroxypropyl-β-cyclodextrin) for i.v. dosing before, at the same time as, and after the endotoxin. Control (untreated) animals go into shock within the first 90 min following LPS administration, and approximately 50% die within 3-5 hr. Mice are monitored for the first 7 hr and at 24 and 48 hr for survival.
(E)-4-(1,3-bis(cyclohexylmethyl)-1, 2, 3, 6-tetrahydro-2, 6-dioxo-9H-purin-8-yl) cinnamic acid was administered at 0.001 to 80 mg/kg i.v. in the Septic Shock model described above.

pIC50 [1]: 4.92 | pIC50 [2]: 5.82 | pIC50 [3]: 5.40
Compound: O=C(O)/C=C/c1ccc(-c2nc3c(=O)n(CC4CCCCCC4)c(=O)n(CC4CCCCCC4)c3[nH]2)cc1 [Example 7, (E)-4-[1,3 Bis(cycloheptylmethyl)-1,2,3,6-tetrahydro-2,6-dioxo-9H-purin-8-yl]cinnamicAcid]
Inhibition of Airway Eosinophilia (% inhibition) ([4]; dose 6.8 mg/kg ip): 50%

Compound: O=C(O)/C=C/c1ccc(-c2nc3c(=O)n(CC4CCCCC4)c(=O)n(CC4CCCCC4)c3[nH]2)cc1 [Example 1, (E)-4-[1,3 Bis(cyclohexylmethyl)-1,2,3,6-tetrahydro-2,6-dioxo-9H-purin-8-yl]cinnamic Acid]
pIC50 [1]: 5.60 | pIC50 [2]: 6.52 | pIC50 [3]: 7.00 | Inhibition of Airway Eosinophilia (% inhibition) ([4]; dose 5 mg/kg ip): 50% | % Survival After 48 hr ([5]; 0.001 mg/kg i.v.): 13% | Alive/Total at 3 hr ([5]; 0.001 mg/kg i.v.): 6/8 | Alive/Total at 48 hr ([5]; 0.001 mg/kg i.v.): 1/8 | % Survival After 48 hr ([5]; 0.01 mg/kg i.v.): 13% | Alive/Total at 3 hr ([5]; 0.01 mg/kg i.v.): 7/8 | Alive/Total at 48 hr ([5]; 0.01 mg/kg i.v.): 1/8 | % Survival After 48 hr ([5]; 0.1 mg/kg i.v.): 50% | Alive/Total at 3 hr ([5]; 0.1 mg/kg i.v.): 6/8 | Alive/Total at 48 hr ([5]; 0.1 mg/kg i.v.): 4/8 | % Survival After 48 hr ([5]; 1.0 mg/kg i.v.): 88% | Alive/Total at 3 hr ([5]; 1.0 mg/kg i.v.): 6/8 | Alive/Total at 48 hr ([5]; 1.0 mg/kg i.v.): 7/8 | protection (decreasing mortality) ([5]; 0.001 to 80 mg/kg i.v., administered 2 hr before and at the time of LPS): greater than 50% | % Survival After 48 hr ([5]; 5.0 mg/kg i.v.): 75% | Alive/Total at 3 hr ([5]; 5.0 mg/kg i.v.): 7/8 | Alive/Total at 48 hr ([5]; 5.0 mg/kg i.v.): 6/8 | % Survival After 48 hr ([5]; 10 mg/kg i.v.): 75% | Alive/Total at 3 hr ([5]; 10 mg/kg i.v.): 8/8 | Alive/Total at 48 hr ([5]; 10 mg/kg i.v.): 6/8 | % Survival After 48 hr ([5]; 20 mg/kg i.v.): 75% | Alive/Total at 3 hr ([5]; 20 mg/kg i.v.): 8/8 | Alive/Total at 48 hr ([5]; 20 mg/kg i.v.): 6/8 | % Survival After 48 hr ([5]; 40 mg/kg i.v.): 75% | Alive/Total at 3 hr ([5]; 40 mg/kg i.v.): 7/8 | Alive/Total at 48 hr ([5]; 40 mg/kg i.v.): 6/8 | % Survival After 48 hr ([5]; 60 mg/kg i.v.): 75% | Alive/Total at 3 hr ([5]; 60 mg/kg i.v.): 7/8 | Alive/Total at 48 hr ([5]; 60 mg/kg i.v.): 6/8 | % Survival After 48 hr ([5]; 80 mg/kg i.v.): 63% | Alive/Total at 3 hr ([5]; 80 mg/kg i.v.): 7/8 | Alive/Total at 48 hr ([5]; 80 mg/kg i.v.): 5/8

pIC50 [1]: 4.82 | pIC50 [2]: 5.22 | pIC50 [3]: 5.30
Compound: O=C(O)/C=C/c1ccc(-c2nc3c(=O)n(CC4CCCC4)c(=O)n(CC4CCCC4)c3[nH]2)cc1 [Example 4, (E)-4-[1,3 Bis(cyclopentylmethyl)-1,2,3,6-tetrahydro-2,6-dioxo-9H-purin-8-yl]cinnamicAcid]
Inhibition of Airway Eosinophilia (% inhibition) ([4]; dose 10 mg/kg ip): 46%

— patent US5776940A, “Phenylxanthine derivatives” (Glaxo Wellcome Inc., priority 1994, dated 1998)
